Experimental data as given in patent US20170246124A1, “TREATMENT OF LEIGH SYNDROME AND LEIGH-LIKE SYNDROME WITH TOCOTRIENOL QUINONES” (BioElectron Technology Corporation, priority 2009, published 2017).
Read-outs that look alike come from different tables or passages of the source.

How the values were obtained:
[1] = Blood-brain barrier crossing, homogenized brains of mice dosed IP; type: in vivo; conditions: C57/BL mice dosed IP at 25 mg/kg, FIG. 5
SURF-1 fibroblasts = experiment: Surfeit-1 (SURF1) cell line assay: rescue of BSO-stressed patient fibroblasts, Calcein AM viability; type: cell-based; conditions: Homo sapiens, Fibroblast, BSO-stressed fibroblasts of the Example 2 patient
Experimental: Alpha-Tocotrienol quinone, its redox-silent version (the bis-Boc protected corresponding hydroquinone), and solvent controls were tested for their ability to rescue cells from SURF-1 fibroblasts of the patient diagnosed with SURF-1 described in Example 2, when the cells were stressed by addition of L-buthionine-(S,R)-sulfoximine (BSO), as described in Jauslin et al., Hum. Mol. Genet. 11(24):3055 (2002), Jauslin et al., FASEB J. 17:1972-4 (2003), and International Patent Application WO 2004/003565. EC50 concentrations of test compound and its redox-silent version were determined and compared. The following compound, 2-((6E,10E)-3-hydroxy-3,7,11,15-tetramethylhexadeca-6,10,14-trienyl)-3,5,6-trimethyl-bis(t-butyloxycarbonyl)benzene-1,4-diol, the bis-Boc protected hydroquinone form of alpha-tocotrienol quinone, was used as the “redox-silent” alpha tocotrienol quinone, or αTTQ-RS.
MEM (a medium enriched in amino acids and vitamins, catalog no. 1-31F24-I) and Medium 199 (M199, catalog no. 1-21F22-I) with Earle's Balanced Salts, without phenol red, were purchased from Bioconcept. Fetal Calf Serum was obtained from PAA Laboratories. Basic fibroblast growth factor and epidermal growth factor were purchased from PeproTech. Penicillin-streptomycin-glutamine mix, L-buthionine (S,R)-sulfoximine, and insulin from bovine pancreas were purchased from Sigma. […]

[2] = tested on: patient with Leigh Syndrome; experiment: Treatment of a Leigh Syndrome patient (Example 3), observed function; type: in vivo, human; conditions: Example 3 patient
Experimental: A patient with Leigh Syndrome was treated with alpha-tocotrienol quinone. Informed consent was obtained from the child's parents in accordance with federal regulations and institutional protocol. A mutation was identified in the SURF-1 gene of the patient.
At the start of treatment, the patient was unable to control their extremities. […] The patient also gained weight.

[3] = Animal study of alpha-tocotrienol quinone administration, pharmacokinetics in rats; conditions: rat, in vivo, 10 mg/kg
Experimental: (§1) The particular dosage appropriate for a specific patient is determined by dose titration. […] There is less than dose-proportionality since for an increase in doses of 2.4:6:10:20 there is only an increase in AUCs of 1.5:2.8:4.0:6.7. This lack of dose-proportionality may be due to decreased absorption since there is no change in t1/2 over dose range. Alpha-tocotrienol quinone tested in rats was safe when given acutely up to 2000 mg/kg.

[4] = rat, in vivo
Experimental: as §1
The starting dose can be estimated based on the United States Food and Drug Administration guidelines titled “Estimating the Maximum Safe Starting Dose in Initial Clinical Trials for Therapeutics in Adult Healthy Volunteers” (July 2005) as well as the International Conference on Harmonisation of Technical Requirements for Registration of Pharmaceuticals for Human Use (ICH) guidelines titled “Guidance on Non-clinical Safety Studies for the Conduct of Human Clinical Trials and Marketing Authorization for Pharmaceuticals” (July 2008). Per ICH guidelines, predicted exposures from the starting dose should not exceed 1/50th the NOAEL (No-Adverse-Observed-Effect-Level) in the more sensitive species on a mg/m^2 basis. Following a single oral dose of alpha-tocotrienol quinone, the NOAEL was established to be 500 mg/kg for the female rat, i.e. 3,000 mg/m2. This dosage would be equivalent to 81 mg/kg in an adult human. […]

[5] = Animal study of alpha-tocotrienol quinone administration, pharmacokinetics in fasted dogs; conditions: dog, in vivo, po, 10 mg/kg
Experimental: as §1

[6] = tested on: patient with Leigh Syndrome; experiment: Treatment of a Leigh Syndrome patient with SURF-1 mutations (Example 2): lactate, MRI, adverse events; type: in vivo, human; conditions: Example 2 patient
Experimental: A patient with Leigh Syndrome was treated with alpha-tocotrienol quinone. Informed consent was obtained from the child's parents in accordance with federal regulations and institutional protocol. Two mutations were identified in the SURF-1 gene of the patient.
(§2) The patient's weight was approximately 10 kg. Alpha-tocotrienol quinone was administered to the patient via gastrointestinal feeding tube; the drug was mixed with sesame oil for administration. The following dosing of alpha-tocotrienol quinone was used:
The patient returned for a review of safety and efficacy evaluation, including CNS lactate/pyruvate ratios as determined by non-invasive means (MRI/MRS) and ECHO. The following efficacy parameters were evaluated: PK parameters; magnetic resonance spectroscopy of central nervous system; echocardiography and electrocardiogram; and plasma and urine analytes.
Lactic acid measurements were as follows:
Magnetic resonance imaging of the patient was performed to assess the effect of treatment. […] These findings are consistent with Leigh Syndrome encephalopathies.
Close monitoring of the patient during the study was performed, to detect any adverse events. In addition, the investigator had authority to stop the study if the safety of the subject was at risk.

[7] = Treatment of a Leigh Syndrome patient with SURF-1 mutations (Example 2): drug levels in plasma and CSF; type: in vivo, human; conditions: Example 2 patient
Experimental: as §2
Full pharmacokinetic sampling (post dose, 3 h, 6 h, 10 h, 24 h, 36 h, 48 h, and 72 h) was done after administration of the initial dose. 0.5 mL of blood were taken at each time point, for a total of four mL of blood drawn at 72 h. Bio-analysis and pharmacokinetic calculations were conducted.
The minimal effective dose of alpha-tocotrienol quinone was determined. The concentration 24 hours after dosing (C24h) was expected to be 220.5 ng/ml (0.504), while the minimal effective dose was expected to be around 150 mg. Thus, the daily dosage was escalated stepwise.
The concentration of alpha tocotrienol quinone was monitored in the patient. […] Alpha tocotrienol quinone was present at 1.3 ng/ml in CSF.

[8] = after treatment compared with pre-treatment MRI

CC(C)=CCC/C(C)=C/CC/C(C)=C/CCC(C)(O)CCC1=C(C)C(=O)C(C)=C(C)C1=O (stereo not drawn) [alpha-tocotrienol quinone, Alpha-tocotrienol quinone]
crosses the blood-brain barrier [1]: crosses the blood-brain barrier | EC50 (SURF-1 fibroblasts; FIG. 1 experiment run beside Coenzyme Q10, read-out: EC50, viability of cells with a SURF-1 mutation (FIG. 1)): 27 nM | EC50 (SURF-1 fibroblasts; FIG. 2 experiment run beside αTTQ-RS, read-out: EC50, viability of cells with a SURF-1 mutation (FIG. 2)): 21 nM | control of extremities ([2]; after 22 days of treatment, unable to control extremities at start): able to move their arm in the “high-five” gesture | motor function ([2]; after 379 days of treatment): able to sit upright | weight gained ([2]; after 379 days of treatment): 15 pounds | gastrointestinal function ([2]; under treatment): greatly improved | sleep ([2]; under treatment): improved | bioavailability [3]: ~90% | dose at which safe when given acutely [4]: up to 2000 mg/kg | NOAEL on mg/m2 basis ([4]; po): 3,000 mg/m2 | bioavailability [5]: ~16% | adverse events ([6]; close monitoring during the study, FIG. 7): No adverse events were observed | plasma lactate level after treatment ([6]; 3.6 mM approximately 4 months prior to treatment, normal range 1.0 to 1.4 mM): 1.1 mM | CSF lactate level after treatment ([6]; 46.5 mg/dL about 2 years pre-treatment): 24.0 mg/dL | MRI: T2 hyperintensities of midbrain, pons, medulla and cerebellum [6, 8]: interval improvement | MRI: amount of lesions [6, 8]: overall decrease | reduction of CSF lactate ([6]; after treatment vs about 2 years pre-treatment): 48.4% | reduction of plasma lactate ([6]; after treatment vs approximately 4 months prior): 69.4% | decrease in brain lactate ([6]; two days prior to treatment to approximately 98 days after starting): 20-30% | concentration 24 hours after dosing (C24h), expected ([7]; expectation before dose escalation): 220.5 ng/mL | concentration at 98 day of treatment ([7]; human, cerebrospinal fluid, other: via gastrointestinal feeding tube, 98th day of treatment, FIG. 9): 1.3 ng/mL
